Assay results from the NIST ThermoML archive (doi:10.1021/je1006482).

How the values were obtained:
[1] = 101.33 kPa, Liquid
[2] = excess molar enthalpy (molar enthalpy of mixing); xn = mol fraction of the nth substance listed; settings: 101.3 kPa, Liquid, Flow calorimetry

COC(=O)CC(C)=O [methyl 3-oxobutanoate]
[1]
Settings | mass density [kg/m3]
288.2 K | 1081.93
298.2 K | 1071.18
313.2 K | 1055.01
328.2 K | 1038.78
338.2 K | 1027.89
348.2 K | 1016.95

COC(=O)CC(C)=O [methyl 3-oxobutanoate] + CC(C)O
excess molar enthalpy [kcal/mol], [2]
Settings | 288.2 K | 298.2 K | 313.2 K | 328.2 K
x1 = 0.1002 | 0.228 | 0.251 | 0.272 | 0.285
x1 = 0.2005 | 0.349 | 0.394 | 0.443 | 0.469
x1 = 0.2998 | 0.422 | 0.48 | 0.542 | 0.576
x1 = 0.35 | 0.448 | 0.504 | 0.569 | 0.605
x1 = 0.4004 | 0.461 | 0.525 | 0.59 | 0.633
x1 = 0.4493 | 0.473 | 0.536 | 0.601 | 0.639
x1 = 0.4998 | 0.476 | 0.536 | 0.598 | 0.634
x1 = 0.5504 | 0.473 | 0.531 | 0.589 | 0.62
x1 = 0.6008 | 0.462 | 0.518 | 0.565 | 0.593
x1 = 0.6492 | 0.444 | 0.494 | 0.536 | 0.558
x1 = 0.6991 | 0.418 | 0.461 | 0.493 | 0.51
x1 = 0.7997 | 0.336 | 0.361 | 0.374 | 0.382
x1 = 0.9002 | 0.194 | 0.206 | 0.205 | 0.211

COC(=O)CC(C)=O [methyl 3-oxobutanoate] + CCCO
excess molar enthalpy [kcal/mol], [2]
Settings | 288.2 K | 298.2 K | 313.2 K | 328.2 K
x1 = 0.0994 | 0.197 | 0.219 | 0.244 | 0.262
x1 = 0.1995 | 0.311 | 0.351 | 0.4 | 0.433
x1 = 0.2993 | 0.38 | 0.43 | 0.495 | 0.538
x1 = 0.3492 | 0.403 | 0.458 | 0.527 | 0.568
x1 = 0.3995 | 0.42 | 0.477 | 0.549 | 0.59
x1 = 0.45 | 0.432 | 0.486 | 0.56 | 0.599
x1 = 0.5008 | 0.435 | 0.491 | 0.561 | 0.601
x1 = 0.5498 | 0.434 | 0.487 | 0.553 | 0.587
x1 = 0.6007 | 0.425 | 0.476 | 0.534 | 0.564
x1 = 0.6495 | 0.41 | 0.457 | 0.507 | 0.533
x1 = 0.7 | 0.387 | 0.427 | 0.471 | 0.488
x1 = 0.8001 | 0.314 | 0.337 | 0.361 | 0.37
x1 = 0.9003 | 0.186 | 0.192 | 0.203 | 0.206

COC(=O)CC(C)=O [methyl 3-oxobutanoate] + CCO
excess molar enthalpy [kcal/mol], [2]
Settings | 288.2 K | 298.2 K | 313.2 K | 328.2 K
x1 = 0.1003 | 0.175 | 0.188 | 0.21 | 0.228
x1 = 0.2002 | 0.278 | 0.303 | 0.343 | 0.37
x1 = 0.2995 | 0.34 | 0.377 | 0.424 | 0.451
x1 = 0.3494 | 0.361 | 0.399 | 0.453 | 0.479
x1 = 0.3995 | 0.375 | 0.416 | 0.47 | 0.501
x1 = 0.4495 | 0.384 | 0.426 | 0.48 | 0.509
x1 = 0.5008 | 0.387 | 0.428 | 0.481 | 0.51
x1 = 0.5497 | 0.384 | 0.424 | 0.476 | 0.502
x1 = 0.5995 | 0.375 | 0.414 | 0.461 | 0.483
x1 = 0.65 | 0.36 | 0.395 | 0.44 | 0.457
x1 = 0.7011 | 0.337 | 0.366 | 0.405 | 0.419
x1 = 0.7996 | 0.269 | 0.288 | 0.313 | 0.319
x1 = 0.9006 | 0.155 | 0.164 | 0.173 | 0.174

COC(=O)CC(C)=O [methyl 3-oxobutanoate] + CO
excess molar enthalpy [kcal/mol], [2]
Settings | 288.2 K | 298.2 K | 313.2 K | 328.2 K
x1 = 0.1004 | 0.127 | 0.136 | 0.148 | 0.159
x1 = 0.2001 | 0.209 | 0.222 | 0.246 | 0.261
x1 = 0.3 | 0.262 | 0.279 | 0.306 | 0.329
x1 = 0.3506 | 0.28 | 0.298 | 0.328 | 0.35
x1 = 0.4003 | 0.293 | 0.309 | 0.34 | 0.364
x1 = 0.4497 | 0.298 | 0.315 | 0.347 | 0.37
x1 = 0.5001 | 0.301 | 0.319 | 0.348 | 0.37
x1 = 0.551 | 0.298 | 0.314 | 0.345 | 0.366
x1 = 0.5993 | 0.289 | 0.307 | 0.335 | 0.353
x1 = 0.6492 | 0.277 | 0.29 | 0.316 | 0.332
x1 = 0.7004 | 0.257 | 0.272 | 0.292 | 0.306
x1 = 0.7993 | 0.202 | 0.21 | 0.222 | 0.233
x1 = 0.8988 | 0.118 | 0.117 | 0.125 | 0.129
